Results on seven compounds are retold here after US20230167121A1, “SUBSTITUTED {1,2,4,} TRIAZOLO{1,5-A} PYRIMIDINE COMPOUNDS AND USE IN STABILIZING MICROTUBULES” (THE TRUSTEES OF THE UNIVERSITY OF PENNSYLVANIA, priority 2020, published 2023).

Data set [1] deals with MTs. The following applies: versus vincristine, taxol, colchicine; cited from earlier work.
The subject of data set [2] is MTs. The following applies: cited from earlier work.
Another data set relates to acetylated α-tubulin. The experiment in a line: cell-based assay of MT-stabilization: acetylated α-tubulin in QBI293 cell lysates by ELISA. The following applies: QB1293 cells, 4 h incubation, 10 μM compound; relative to vehicle-treated cells; *p<0.05, **p<0.01. The procedure: All test compounds were evaluated in a previously described cell-based assay of MT-stabilization (see Kovalevich, J., et al. (2016) Characterization of Brain-Penetrant Pyrimidine-Containing Molecules with Differential Microtubule-Stabilizing Activities Developed as Potential Therapeutic Agents for Alzheimer's Disease and Related Tauopathies. J Pharmacol Exp Ther 357, 432-450, incorporated herein by reference), in which compound-dependent changes in tubulin polymerization and total tubulin levels were determined after 4 h of incubation of QBI293 cells with 1 and 10 μM compound via quantification of acetylated α-tubulin and total tubulin in cell lysates by ELISA.
Novel C6 nitrile- and alkyne-substituted triazolopyrimidine examples that have improved in vitro activity relative to previously described examples, with the general structure depicted in Formula I. The activity of the novel C6-nitrile substituted compounds were tested in a previously described cellular assay of MT-stabilization (Kovalevich, J., et al. (2016)). As summarized in Table 2. below, eighteen examples were synthesized and tested. In all cases, these compounds were confirmed to be active Class I triazolopyrimidines. […] Table 2 provides fold-changes in acetylated α-tubulin and total α-tubulin levels in QB1293 cells after 4 h incubation with test compounds at either 1 or 10 μM. Data are expressed as the fold-change relative to vehicle-treated cells. *p<0.05 and **p<0.01 by one-way ANOVA.
Compounds produced according to the preceding synthetic schemes were for microtubule stabilization. Fold-changes in acetylated α-tubulin (AcTub) and α-tubulin (α-Tub) levels in QB1293 cells after 4 h incubation with test compounds at either 1 or 10 μM. Reported values for AcTub and α-Tub represent the fold-change over control (DMSO)-treated cells (*p<0.05 and **p<0.01 by one-way ANOVA); numbers in parentheses represent the fold-change of AcTub over positive control-treated cells (i.e., 100 nM of cevipabulin). Changes of +/−15% of control are deemed to be within the day-to-day assay variability and non-significant.
On the technique in general: ELISA stands for enzyme-linked immunosorbent assay.

A further data set deals with total α-tubulin. Kind of data set: cell-based assay of MT-stabilization: total α-tubulin in QBI293 cell lysates by ELISA. The note with it: QBI293, 4 h, QB1293 cells.
A short description of data set [3]: Plasma and brain compound determinations (LC-MS/MS). In kind it is in vivo. The note with it: CD1 mice, 2.5 mg/kg each, one hour after dosing; for concentration at 1 h / Kp at 1 h: CD1, mouse, 2.5 mg/kg. The procedure:
CD1 mice (n=3) were dosed concurrently with CNDR-51990 and CNDR-51993 (representing a 1:1 mixture of two diastereoisomers, 52017 (67) and 52016 (68)) at 2.5 mg/kg each). One hour after dosing, mice were euthanized and blood collected, followed by perfusion with saline. Mouse brains were homogenized in 10 mM ammonium acetate, pH 5.7 (1:2; w/v) using a handheld sonic homogenizer. Mouse plasma was obtained from blood that was collected into a 1.5 ml tube containing 0.5M EDTA solution and which was centrifuged for 10 minutes at 4500 g at 4° C. Aliquots (50 μl) of brain homogenates or plasma were mixed with 0.2 ml of acetonitrile, centrifuged at 15,000×g, and the resulting supernatant was used for subsequent LC-MS/MS analysis. The LC-MS/MS analysis was conducted by Inotiv, Inc., utilizing methods essentially as previously described (Lou et al., J. Med. Chem. 57:6116-27, 2014).

The nature of another data set: B/P of Table 4. The following applies: in vivo.
Setting [4] is: dosed concurrently, individual animals 1-3, listed as 51990 (70).
The mark [5] stands for this setting: Table 4, 4 h, 1 μM, read-out: α-Tub l μM (fold-change over control (DMSO)-treated cells).
Setting [6] is: Table 4, 4 h, 10 μM, read-out: α-Tub 10 μM (fold-change over control (DMSO)-treated cells).

The structures appear in SMILES notation. Where “and” joins values, the source holds several entries; their conditions need not be identical. Equal entries are not always repeated. Structures can show the parent of a compound that is named as a salt. Where two headings read alike, the source gives them in different places.

For the compound `CNCCCOc1cc(F)c(-c2c(Cl)nc3ncnn3c2N[C@@H](C)C(F)(F)F)c(F)c1` [Cevipabulin], the “competition for binding to MTs” value in the data set on MTs [1] is on record as “competes with vincristine but not taxol or colchicine”.

Turning to `CO[C@H]1C[C@H]2CC[C@@H](C1)N2c1c(-c2c(F)cc(F)cc2F)c(Cl)nc2ncnn12` [Compound 2], the “binding to MTs / unpolymerized tubulin heterodimers” value in the data set on MTs [2] is “binds exclusively to MTs and not to unpolymerized tubulin heterodimers”.

With `C[C@@H](Nc1c(-c2ccc(C#N)cc2F)c(Cl)nc2ncnn12)C(C)(C)C` [Compound 70, (R)-4-(5-Chloro-7-((3,3-dimethylbutan-2-yl)amino)-[1,2,4]triazolo[1,5-a]pyrimidin-6-yl)-3-fluorobenzonitrile], the “AcTub 10 μM (fold-change in acetylated α-tubulin)” value in the data set with acetylated α-tubulin amounted to 7.67 ± 0.70 fold-change. The fold induction at 1 µM in the data set on total α-tubulin (4 h incubation, 1 μM compound, relative to vehicle-treated cells, read-out: α-Tub 1 μM (fold-change in total α-tubulin)) turned out to be 0.86. Moreover, the fold induction at 10 µM in the data set on total α-tubulin (4 h incubation, 10 μM compound, relative to vehicle-treated cells, read-out: α-Tub 10 μM (fold-change in total α-tubulin)) was found to be 0.93. The concentration at 1 h stood at 158 ng/g in data set [3] (brain, dosed concurrently, individual animals 1-3, read-out: Brain Concentration); 183 ng/g in data set [3] (brain, dosed concurrently, mean, n=3, read-out: Brain Concentration, Mean); 175 ng/mL in data set [3] (plasma, dosed concurrently, individual animals 1-3, read-out: Plasma Concentration); 151 ng/mL in data set [3] (plasma, dosed concurrently, mean, n=3, read-out: Plasma Concentration, Mean). Also, the Kp at 1 h in data set [3] (brain, individual animals 1-3, read-out: Brain/Plasma) stood at 0.9; in data set [3] (brain, mean, n=3, read-out: Brain/Plasma, Mean), 1.21. For the same compound, the “Brain Concentration” value in data set [3] (setting [4]) was 186 ng/g and 206 ng/g. Moreover, the “Plasma Concentration” value in data set [3] (setting [4]) was 133 ng/mL and 146 ng/mL. In addition, the Brain/Plasma in data set [3] (individual animals 1-3, listed as 51990 (70)) was 1.40 and 1.41.

For `C[C@@H](Nc1c(-c2c(F)cc(C#CCCN)cc2F)c(Cl)nc2ncnn12)C(C)(C)C` [TAL-580, (R)-6-(4-(4-aminobut-1-yn-1-yl)-2,6-difluorophenyl)-5-chloro-N-(3,3-dimethylbutan-2-yl)-[1,2,4]triazolo[1,5-a]pyrimidin-7-amine hydrochloride], the fold induction at 1 µM in the data set on total α-tubulin (setting [5]) turned out to be 0.96. Further, in the data set on total α-tubulin (setting [6]), the fold induction at 10 µM was 0.91. Moreover, the Kp in “B/P of Table 4” turned out to be 1.04.

Turning to `CC(C)[C@@H](C)Nc1c(-c2c(F)cc(C#CCCO)cc2F)c(Cl)nc2ncnn12` [TAL-598, (R)-4-(4-(5-chloro-7-((3-methylbutan-2-yl)amino)-[1,2,4]triazolo[1,5-a]pyrimidin-6-yl)-3,5-difluorophenyl)but-3-yn-1-ol], in the data set with total α-tubulin (setting [5]), the fold induction at 1 µM came to 0.92. Moreover, in the data set “B/P of Table 4”, the Kp was determined as 0.44.

Turning to `C[C@@H](Nc1c(-c2c(F)cc(C#CCCO)cc2F)c(Cl)nc2ncnn12)C(C)(C)C` [TAL-600, (R)-4-(4-(5-chloro-7-((3,3-dimethylbutan-2-yl)amino)-[1,2,4]triazolo[1,5-a]pyrimidin-6-yl)-3,5-difluorophenyl)but-3-yn-1-ol], the fold induction at 1 µM in the data set on total α-tubulin (setting [5]) was determined as 0.98. Also, the fold induction at 10 µM in the data set on total α-tubulin (setting [6]) was 0.98. The compound also returned a Kp in “B/P of Table 4” of 0.47.

In the case of `[2H]C([2H])(O)CC#Cc1cc(F)c(-c2c(Cl)nc3ncnn3c2N[C@H](C)C(C)(C)C)c(F)c1` [TAL-651, (R)-4-(4-(5-chloro-7-((3,3-dimethylbutan-2-yl)amino)-[1,2,4]triazolo[1,5-a]pyrimidin-6-yl)-3,5-difluorophenyl)but-3-yn-1,1-d2-1-ol], the fold induction at 1 µM in the data set on total α-tubulin (setting [5]) came to 1.02. The fold induction at 10 µM in the data set on total α-tubulin (setting [6]) was 1.01. This compound also had a Kp in “B/P of Table 4” of 0.46.
